Laboratory results as given in patent publication US20050085554A1, “Methods of treating disease through the administration of a manzamine analog or derivative” (priority 2003, published 2005).
In brackets after ≈: the same amount, converted by molar mass. Where two headings read alike, the source gives them in different places.

Legend:
[1] = system: Mycobacterium tuberculosis H37Rv; experiment: In vitro antimycobacterial activity (Microplate Alamar Blue Assay), MIC; format: cell-based
HIV-1LAV = experiment: Anti-HIV-1 activity in PBM cells; format: cell-based, human immunodeficiency virus (HIV-1); settings: for EC50: T5
Protocol: Anti-HIV-1 activity was determined in PBM cells as described previously. See, Stock solutions (20 or 40 mM) of the compounds were prepared in sterile DMSO and then diluted to the desired concentration in growth medium. Cells were infected with the prototype HIV-1LAV at a multiplicity of infection of 0.1. Details on the infection of cells and assessment of antiviral effects was described previously. See, Schinazi, R. F.; McMillan, A.; Cannon, D.; Mathis, R.; Lloyd, R. M.; Peck, A.; Sommadossi, J.-P.; Clair, M. S.; Wilson, J.; Furman, P. A.; Painter G.; Choi, W.-B.; Liotta, D. C. Antimicrob. Agents Chemother. 1992, 36, 2423-2431 and Schinazi, R. F.; Sommadossi, J.-P.; Saalmann, V.; Cannon, D. L.; Xie, M.-Y.; Hart, G. C.; Smith, G. A.; Hahn, E. F. Antimicrob. Agents Chemother. 1990, 34, 1061-1067.

Cryptococcus neoformans = experiment: Antifungal activity against Cryptococcus neoformans; format: cell-based
[2] = system: Plasmodium falciparum (D6 clone); experiment: Antimalarial activity in vitro, D6 clone; format: cell-based
[3] = system: P. falciparum (chlorine-resistant W2 clone); experiment: Antimalarial activity in vitro, W2 clone; format: cell-based, Plasmodium falciparum
Leishmania donovani = experiment: Antileishmanial activity in vitro; format: cell-based
Staphylococcus aureus = experiment: Antibacterial activity against S. aureus; format: cell-based; settings: for IC50: Staphylococcus aureus
[4] = system: methicillin-resistant Staphylococcus aureus; experiment: Antibacterial activity against MRS; format: cell-based
[5] = system: Mycobacterium intracellulare; experiment: Activity against M. intracellulare; format: cell-based
[6] = system: human colon carcinoma H-116
Vero cells = experiment: In vitro cytotoxicity to mammalian cells (Vero)
[7] = Mycobacterium intracellulare, T5, NA = not active, read-out: IC50 M. intracellulare
[8] = T4, NC = No Cytotoxicity (concentration: 4760 ng/ml)

Molecule	Mycobacterium Tuberculosis (H37Rv) MIC ([1]; T4) [µg/mL]	EC50 (HIV-1LAV) [µM]	Antifungal IC50 C. neoformans (Cryptococcus neoformans; T5, NA = not active) [µg/mL]	Plasmodium falciparum (D6 clone) IC 50 ([2]; T4, NA = not active) [µg/mL]	P. falciparum (chlorine-resistant W2 clone) IC 50 ([3]; T4, NA = not active) [µg/mL]	Leishmania donovani IC 50 (Leishmania donovani; T4) [µg/mL]	Leishmania donovani IC 90 (Leishmania donovani; T4) [µg/mL]	Antibacterial IC50 S. aureus (Staphylococcus aureus; T5, NA = not active) [µg/mL]	Antibacterial IC50 MRS ([4]; T5, NA = not active) [µg/mL]	IC50 M. intracellulare ([5]; T5, NA = not active) [µg/mL]	further results
Oc1cccc2c1[nH]c1c(C3=C[C@@]4(O)CC/C=C\CCCCN5CCC3[C@]3(CC6/C=C\CCCCN6[C@H]34)C5)nccc12 (single isomer, unassigned; (+)) [(+)-8-Hydroxymanzamine A]	0.91	0.59	3.0	0.006	0.008	6.2	11	0.9	4.0	1.0 (≈ 1.77 µM)	–
O[C@]12C=C(c3nccc4c3[nH]c3ccccc34)C3CCN(CCCC/C=C\CC1)C[C@@]31C[C@]34CC[C@H](CCCN3[C@H]12)O4 (some centres unmarked) [6-Deoxymanzamine X]	1.77	1.6	2.0	1.3	1.4	3.2	7.5	1.5	1.5	6.25 (≈ 11.1 µM)	–
O=C1CCCN2[C@@H](CC1)C[C@]13CN4CCCC/C=C\CC[C@](O)(C=C(c5nccc6c5[nH]c5ccc(O)cc56)[C@@H]1CC4)[C@H]23 [6-Hydroxymanzamine E]	0.4	–	5.5	0.78	0.87	2.5	4.3	–	–	3.5 (≈ 6.03 µM)	–
O=C1CCCN2C3C45C=C(c6nccc7c6[nH]c6ccccc67)C6CCN(CCCC/C=C\CC4)CC63C[C@@]2(CC1)O5 (some centres unmarked) [12,34-Oxamanzamine E]	–	17.5	–	–	–	–	–	–	–	–	–
O=C(O)c1cn(C2CC2)c2cc(N3CCNCC3)c(F)cc2c1=O [Ciprofloxacin, reference compound]	–	–	–	–	–	–	–	–	–	–	IC50 (Staphylococcus aureus; T5, NA = not active, read-out: Antibacterial IC50 S. aureus): 0.1 µg/mL (≈ 0.302 µM); IC50 (Staphylococcus aureus; T6, read-out: Staphylococcus aureus IC50): 0.1 µg/mL (≈ 0.302 µM); IC50 ([4]; Staphylococcus aureus, T5, NA = not active, read-out: Antibacterial IC50 MRS): 0.1 µg/mL (≈ 0.302 µM); MIC ([4]; Staphylococcus aureus, T6): 0.31 µg/mL (≈ 0.936 µM); IC50 ([4]; T6, MRS: methicillin-resistant Staphylococcus aureus, read-out: MRS IC50): 0.1 µg/mL (≈ 0.302 µM); IC50 [5, 7]: 0.25 µg/mL (≈ 0.754 µM); MIC ([5]; Mycobacterium intracellulare, T6): 0.63 µg/mL (≈ 1.9 µM); IC50 ([5]; Mycobacterium intracellulare, T6, read-out: Mycobacterium intracellulare IC50): 0.25 µg/mL (≈ 0.754 µM)
O=CC1=C[C@@]2(O)CC/C=C\CCCCN3CC[C@@H]1[C@]1(CC4/C=C\CCCCN4[C@H]12)C3 (some centres unmarked) [Ircinal A]	30.2	6.8	–	–	–	–	–	–	–	50 (≈ 122 µM)	–
OCC1=C[C@]2(O)CC/C=C\CCCCN3CC[C@@H]1[C@@]1(C[C@H]4/C=C\CCCCN4[C@@H]12)C3 [Ircinol A]	1.93	4.3	–	2.4	3.1	–	–	–	30	50 (≈ 121 µM)	–
CC(=O)C[C@@H]1C[C@H]2[C@H]([C@@H]3c4[nH]c5ccccc5c4CCN13)[C@H](O)C13CC/C=C\CCCCN1CC21C2CCCCCCCN2[C@H]13 (some centres unmarked) [Manadomanzamine B]	–	–	–	–	–	–	–	–	–	–	MIC against Mycobacterium tuberculosis (Mtb) ([1]; rifampin = positive control): 1.53 µg/mL (≈ 2.5 µM); EC50 against human immunodeficiency virus (HIV-1) (HIV-1LAV): 16.5 µg/mL (≈ 27 µM); IC50 against the fungus Cryptococcus neoformans (Cryptococcus neoformans): 3.5 µg/mL (≈ 5.73 µM); IC50 against human colon carcinoma H-116 [6]: 5.0 µg/mL (≈ 8.18 µM)
O[C@]12C=C(c3nccc4c3[nH]c3ccccc34)[C@@H]3CCN(CCCC/C=C\CC1)C[C@@]31C[C@@H]3/C=C\CCCCN3[C@H]12 [Manzamine A]	1.53	4.2	3.0	0.0045	0.008	0.9	1.8	0.5	0.7	0.35 (≈ 0.638 µM)	Plasmodium falciparum (D6 clone) IC 50 ([2]; T7): 0.0045 µg/mL; P. falciparum (chlorine-resistant W2 clone) IC 50 ([3]; T7): 0.008 µg/mL; Leishmania donovani IC 50 (Leishmania donovani; T7): 0.9 µg/mL; Leishmania donovani IC 90 (Leishmania donovani; T7): 1.8 µg/mL; M. intracellulare IC50 ([5]; T7, first value of a cell '2.0/5.0'): 1.53 µg/mL; Cytotoxicity (Vero) (Vero cells; [8]): 1200 ng/mL; Cytotoxicity (Vero) (Vero cells; T7, NC not defined in this table): 1200 ng/mL
O=C1CCCN2[C@@H](CC1)C[C@]13CN4CCCC/C=C\CC[C@](O)(C=C(c5nccc6c5[nH]c5ccccc56)[C@@H]1CC4)[C@H]23 [Manzamine E]	3.76	13.1	–	3.4	4.76	3.8	6.8	–	–	12.5 (≈ 22.1 µM)	–
O=C1CCCN2[C@@H](CC1)C[C@]13CN4CCCC/C=C\CC[C@](O)(C=C(c5nccc6c5[nH]c5c(O)cccc56)C1CC4)[C@H]23 (some centres unmarked) [Manzamine F]	2.56	7.3	6.5	0.78	1.7	4.2	7	–	–	6.25 (≈ 10.8 µM)	Plasmodium falciparum (D6 clone) IC 50 ([2]; T8, NA not defined): 0.78 µg/mL; P. falciparum (chlorine-resistant W2 clone) IC 50 ([3]; T8): 1.7 µg/mL
Oc1ccc2[nH]c3c(C4=C[C@@]5(O)CC/C=C\CCCCN6CC[C@@H]4[C@@]4(C6)C[C@@]67CC[C@@H](CCCN6[C@H]45)O7)nccc3c2c1 [Manzamine X]	–	2.3	3.0	0.95	2	5.7	11	1.0	0.75	1.5 (≈ 2.58 µM)	–
O[C@@H]1CCCN2CC[C@@H]1O[C@@]13CC[C@@H](OC[C@]45CN6CCCC/C=C\CC[C@](O)(C=C(c7nccc8c7[nH]c7ccccc78)[C@@H]4CC6)[C@H]25)[C@@H](O)CCN1[C@@H]1[C@]2(CN4CCCC/C=C\CC[C@]1(O)C=C(c1nccc5c1[nH]c1ccccc15)[C@@H]2CC4)C3 [neo-Kauluamine]	–	–	–	–	–	–	–	–	–	–	MIC ([1]; Mycobacterium tuberculosis, H37RV, T4, read-out: Mycobacterium Tuberculosis (H37Rv) MIC): 2 µg/mL (≈ 1.72 µM); IC50 (Cryptococcus neoformans; Cryptococcus neoformans, T5, NA = not active, read-out: Antifungal IC50 C. neoformans): 3 µg/mL (≈ 2.58 µM); IC50 ([2]; Plasmodium falciparum, D6, T4, NA = not active, read-out: Plasmodium falciparum (D6 clone) IC 50): 1.7 µg/mL (≈ 1.46 µM); IC50 ([3]; Plasmodium falciparum, W2, read-out: P. falciparum (chlorine-resistant W2 clone) IC 50): 2.8 µg/mL (≈ 2.41 µM); IC50 [5, 7]: 3 µg/mL (≈ 2.58 µM)
Manzamine A N-oxide	3.9	–	1.0	0.011	0.013	1.1	3.8	0.5	0.35	0.2	Cytotoxicity (Vero) (Vero cells; [8]): 420 ng/mL
